Measurements: patent US20230023092A1, “TREATMENT OF DEPRESSION AND OTHER VARIOUS DISORDERS WITH PSILOCYBIN” (COMPASS […], priority 2019, published 2023)

Test system: healthy subjects
Assay: Symptom Checklist-90 Item (SCL-90)
Format: in vivo, human
Description: In some embodiments, the Symptom Checklist-90 item (SCL-90) questionnaire is used to evaluate the safety and/or efficacy of psilocybin. The SCL-90 is a relatively brief self-report psychometric instrument designed to evaluate a broad range of psychological problems and symptoms of psychopathology. In some embodiments, the SCL-90 is used to assess somatization, obsessive-compulsive behaviors, interpersonal sensitivity, depression, anxiety, hostility, phobic anxiety, paranoid ideation, and psychoticism of a subject treated according to the methods of the disclosure. The 90 items in the questionnaire are scored on a 5-point Likert scale, indicating the rate of occurrence of the symptom during the time reference. In some embodiments, after treating according to the methods of the disclosure, a subject's SCL-90 score decreases by about 5% to about 100%, for example, by about 5%, about 10%, about 15%, about 20%, about 25%, about 30%, about 35%, about 40%, about 45%, about 50%, about 55%, about 60%, about 65%, about 70%, about 75%, about 80%, about 85%, about 90%, about 95%, or about 100%.
The Neuroticism Extraversion Openness-Five Factor Inventory (NEO-FFI) and Symptom Checklist-90 Item (SCL-90) were administered. Details of the MMRM applied to the change from baseline scores for the NEO-FFI and SCL-90 are provided below in Table 2Q.

[1] = Day 7, psilocybin 10 mg - placebo
[2] = Day 7, psilocybin 25 mg - 10 mg
[3] = Day 7, psilocybin 25 mg - placebo
[4] = Day 84, psilocybin 10 mg - placebo
[5] = Day 84, psilocybin 25 mg - 10 mg
[6] = Day 84, psilocybin 25 mg - placebo

CN(C)CCc1c[nH]c2cccc(OP(=O)(O)O)c12 [Psilocybin, psilocybin]
SCL-90-somatisation change from baseline, LS mean (Day 7, psilocybin 10 mg): 0.1
SCL-90 anger hostility change from baseline, LS mean (Day 7, psilocybin 10 mg): −0.0
SCL-90 anxiety change from baseline, LS mean (Day 7, psilocybin 10 mg): −0.0
SCL-90 depression change from baseline, LS mean (Day 7, psilocybin 10 mg): 0.0
SCL-90 interpersonal sensitivity change from baseline, LS mean (Day 7, psilocybin 10 mg): −0.0
SCL-90 obsessive compulsive change from baseline, LS mean (Day 7, psilocybin 10 mg): −0.1
SCL-90 paranoid ideation change from baseline, LS mean (Day 7, psilocybin 10 mg): −0.0
SCL-90 phobic anxiety change from baseline, LS mean (Day 7, psilocybin 10 mg): −0.0
SCL-90 psychoticism change from baseline, LS mean (Day 7, psilocybin 10 mg): 0.0
SCL-90-somatisation change from baseline, LS mean difference [1]: 0.1
SCL-90 anger hostility change from baseline, LS mean difference [1]: −0.0
SCL-90 anxiety change from baseline, LS mean difference [1]: −0.0
SCL-90 depression change from baseline, LS mean difference [1]: 0.0
SCL-90 interpersonal sensitivity change from baseline, LS mean difference [1]: −0.0
SCL-90 obsessive compulsive change from baseline, LS mean difference [1]: 0.1
SCL-90 paranoid ideation change from baseline, LS mean difference [1]: 0.0
SCL-90 phobic anxiety change from baseline, LS mean difference [1]: −0.0
SCL-90 psychoticism change from baseline, LS mean difference [1]: 0.0
SCL-90-somatisation change from baseline, LS mean (Day 7, psilocybin 25 mg): 0.1
SCL-90 anger hostility change from baseline, LS mean (Day 7, psilocybin 25 mg): −0.0
SCL-90 anxiety change from baseline, LS mean (Day 7, psilocybin 25 mg): −0.0
SCL-90 depression change from baseline, LS mean (Day 7, psilocybin 25 mg): 0.0
SCL-90 interpersonal sensitivity change from baseline, LS mean (Day 7, psilocybin 25 mg): 0.0
SCL-90 obsessive compulsive change from baseline, LS mean (Day 7, psilocybin 25 mg): −0.1
SCL-90 paranoid ideation change from baseline, LS mean (Day 7, psilocybin 25 mg): 0.1
SCL-90 phobic anxiety change from baseline, LS mean (Day 7, psilocybin 25 mg): 0.0
SCL-90 psychoticism change from baseline, LS mean (Day 7, psilocybin 25 mg): 0.0
SCL-90-somatisation change from baseline, LS mean difference [2]: −0.0
SCL-90 anger hostility change from baseline, LS mean difference [2]: 0.0
SCL-90 anxiety change from baseline, LS mean difference [2]: 0.0
SCL-90 depression change from baseline, LS mean difference [2]: −0.0
SCL-90 interpersonal sensitivity change from baseline, LS mean difference [2]: 0.1
SCL-90 obsessive compulsive change from baseline, LS mean difference [2]: −0.0
SCL-90 paranoid ideation change from baseline, LS mean difference [2]: 0.1
SCL-90 phobic anxiety change from baseline, LS mean difference [2]: 0.0
SCL-90 psychoticism change from baseline, LS mean difference [2]: 0.0
SCL-90-somatisation change from baseline, LS mean difference [3]: 0.1
SCL-90 anger hostility change from baseline, LS mean difference [3]: −0.0
SCL-90 anxiety change from baseline, LS mean difference [3]: 0.0
SCL-90 depression change from baseline, LS mean difference [3]: 0.0
SCL-90 interpersonal sensitivity change from baseline, LS mean difference [3]: 0.0
SCL-90 obsessive compulsive change from baseline, LS mean difference [3]: 0.1
SCL-90 paranoid ideation change from baseline, LS mean difference [3]: 0.1
SCL-90 phobic anxiety change from baseline, LS mean difference [3]: 0.0
SCL-90 psychoticism change from baseline, LS mean difference [3]: 0.0
SCL-90-somatisation change from baseline, LS mean (Day 84, psilocybin 10 mg): 0.0
SCL-90 anger hostility change from baseline, LS mean (Day 84, psilocybin 10 mg): 0.0
SCL-90 anxiety change from baseline, LS mean (Day 84, psilocybin 10 mg): −0.0
SCL-90 depression change from baseline, LS mean (Day 84, psilocybin 10 mg): 0.1
SCL-90 interpersonal sensitivity change from baseline, LS mean (Day 84, psilocybin 10 mg): 0.0
SCL-90 obsessive compulsive change from baseline, LS mean (Day 84, psilocybin 10 mg): −0.0
SCL-90 paranoid ideation change from baseline, LS mean (Day 84, psilocybin 10 mg): 0.1
SCL-90 phobic anxiety change from baseline, LS mean (Day 84, psilocybin 10 mg): 0.0
SCL-90 psychoticism change from baseline, LS mean (Day 84, psilocybin 10 mg): −0.0
SCL-90-somatisation change from baseline, LS mean difference [4]: 0.0
SCL-90 anger hostility change from baseline, LS mean difference [4]: −0.0
SCL-90 anxiety change from baseline, LS mean difference [4]: −0.1
SCL-90 depression change from baseline, LS mean difference [4]: 0.0
SCL-90 interpersonal sensitivity change from baseline, LS mean difference [4]: −0.1
SCL-90 obsessive compulsive change from baseline, LS mean difference [4]: 0.1
SCL-90 paranoid ideation change from baseline, LS mean difference [4]: 0.1
SCL-90 phobic anxiety change from baseline, LS mean difference [4]: −0.0
SCL-90 psychoticism change from baseline, LS mean difference [4]: −0.0
SCL-90-somatisation change from baseline, LS mean (Day 84, psilocybin 25 mg): 0.0
SCL-90 anger hostility change from baseline, LS mean (Day 84, psilocybin 25 mg): 0.0
SCL-90 anxiety change from baseline, LS mean (Day 84, psilocybin 25 mg): −0.0
SCL-90 depression change from baseline, LS mean (Day 84, psilocybin 25 mg): 0.1
SCL-90 interpersonal sensitivity change from baseline, LS mean (Day 84, psilocybin 25 mg): 0.0
SCL-90 obsessive compulsive change from baseline, LS mean (Day 84, psilocybin 25 mg): −0.1
SCL-90 paranoid ideation change from baseline, LS mean (Day 84, psilocybin 25 mg): 0.1
SCL-90 phobic anxiety change from baseline, LS mean (Day 84, psilocybin 25 mg): 0.0
SCL-90 psychoticism change from baseline, LS mean (Day 84, psilocybin 25 mg): 0.0
SCL-90-somatisation change from baseline, LS mean difference [5]: 0.0
SCL-90 anger hostility change from baseline, LS mean difference [5]: −0.0
SCL-90 anxiety change from baseline, LS mean difference [5]: 0.0
SCL-90 depression change from baseline, LS mean difference [5]: 0.0
SCL-90 interpersonal sensitivity change from baseline, LS mean difference [5]: 0.0
SCL-90 obsessive compulsive change from baseline, LS mean difference [5]: −0.1
SCL-90 paranoid ideation change from baseline, LS mean difference [5]: 0.0
SCL-90 phobic anxiety change from baseline, LS mean difference [5]: 0.0
SCL-90 psychoticism change from baseline, LS mean difference [5]: 0.0
SCL-90-somatisation change from baseline, LS mean difference [6]: 0.0
SCL-90 anger hostility change from baseline, LS mean difference [6]: −0.0
SCL-90 anxiety change from baseline, LS mean difference [6]: −0.0
SCL-90 depression change from baseline, LS mean difference [6]: 0.0
SCL-90 interpersonal sensitivity change from baseline, LS mean difference [6]: −0.0
SCL-90 obsessive compulsive change from baseline, LS mean difference [6]: 0.0
SCL-90 paranoid ideation change from baseline, LS mean difference [6]: 0.1
SCL-90 phobic anxiety change from baseline, LS mean difference [6]: 0.0
SCL-90 psychoticism change from baseline, LS mean difference [6]: −0.0
